Measured values reported in patent publication US20040192581A1, “Topical anti-infective formulations” (priority 2002, published 2004).

Tested on: S. aureus
Experiment: In vitro efficacy of nisin cream versus nisin in PBS, viable cell count
Format: cell-based
Details: 37° C. for 60 minutes
Protocol: A topical cream (100 g) was prepared by heating the waxes and oils to about 70° C. Nisin in an aqueous solution was added after the cream had cooled to room temperature. The following ingredients were mixed in a 250 mL glass beaker until a homogenous compound was formed:
To test the anti-infective activity of the nisin-based cream, and to compare this activity to that of the same concentration of nisin in PBS, 20 μL of a suspension of 9×10^8 CFU/mL S. aureus was added to 1 g of cream and 1 mL of PBS at the nisin concentrations indicated in Table I. The samples were vortexed to mix and incubated at 37° C. for 60 minutes. 1 mL of mineral oil was added to the cream to facilitate pipetting and then serial dilutions were plated for enumeration of viable cells. The data in Table I show the viable cells for each nisin concentration.

Substance: Nisin
- viable cells, PBS (nisin 0.5 μg/ml in PBS): TNTC
- viable cells, Cream (nisin 0.5 μg/ml in cream): 1082 cfu/ml
- viable cells, PBS (nisin 2.5 μg/ml in PBS): TNTC
- viable cells, Cream (nisin 2.5 μg/ml in cream): 140 cfu/ml
- viable cells, PBS (nisin 12.5 μg/ml in PBS): 482 cfu/ml
- viable cells, Cream (nisin 12.5 μg/ml in cream): 12 cfu/ml
